Measurements taken from publication PMC10787763, “Two-substrate enzyme engineering using small libraries that combine the substrate preferences from two different variant lineages” (Scientific Reports, 2024).

Biological target: T1, E. coli transketolase (TK), 6M variant scaffold (Escherichia coli, UniProt P27302, H100L/H192P/A282P/I365L/D469T/G506A/R520Q, form not given)
T1 construct: gene tktA; full-length, C-terminal His6 tag, expressed in E. coli from lab plasmid (pQR791 / pQR729), Ni-NTA purified; holo-TK with ThDP and Mg2+; non-natural residue by amber suppression in TK-5C
T1 sequence (P27302 whole entry H100L/H192P/A282P/I365L/D469T/G506A/R520Q, form open): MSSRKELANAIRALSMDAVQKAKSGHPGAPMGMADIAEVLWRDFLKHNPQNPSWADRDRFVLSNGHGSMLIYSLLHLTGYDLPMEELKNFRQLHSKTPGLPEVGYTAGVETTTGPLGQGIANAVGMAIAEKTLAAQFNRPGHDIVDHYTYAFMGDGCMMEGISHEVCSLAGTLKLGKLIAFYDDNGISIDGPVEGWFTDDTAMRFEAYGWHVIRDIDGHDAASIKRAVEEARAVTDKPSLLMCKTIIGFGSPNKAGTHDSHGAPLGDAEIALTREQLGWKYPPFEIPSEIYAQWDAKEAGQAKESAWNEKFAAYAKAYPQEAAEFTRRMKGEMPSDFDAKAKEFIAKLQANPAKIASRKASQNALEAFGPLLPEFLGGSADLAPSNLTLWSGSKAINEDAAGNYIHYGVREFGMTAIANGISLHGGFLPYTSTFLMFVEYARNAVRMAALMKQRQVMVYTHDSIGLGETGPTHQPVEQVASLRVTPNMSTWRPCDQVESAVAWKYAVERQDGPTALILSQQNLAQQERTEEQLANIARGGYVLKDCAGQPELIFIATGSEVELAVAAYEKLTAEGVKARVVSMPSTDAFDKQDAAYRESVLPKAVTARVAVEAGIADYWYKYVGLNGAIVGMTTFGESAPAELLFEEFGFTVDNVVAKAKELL
Test: initial-rate kinetics by RP-HPLC, Michaelis-Menten fit
Assay type: biochemical
Conditions: TK-5C; residue 385 is non-natural p-cyano-L-phenylalanine; acceptor substrate varied, 50 mM pyruvate as donor, 2.4 mM ThDP, 9 mM MgCl2, 50 mM Tris-HCl pH 7.0, 21 °C; error is SEM
Description: initial-rate kinetics by RP-HPLC, Michaelis-Menten fit on E. coli transketolase (TK), 6M variant scaffold

Km: 95 mM
Compound: O=Cc1cccc(C(=O)O)c1 [3-FBA, 3-formylbenzoic acid]
